{"source": "patent US20010049372A1", "about": "“Antiviral nucleoside analogues” (BioChem Pharma Inc., priority 1998, published 2001)", "key": {"HIV-1IIIB": {"system": "HIV-1IIIB", "assay": "Anti-HIV-1 antiviral assay with HIV-1IIIB in various cell types (RT activity)", "type": "cell-based", "experimental": "(§1) ANTIVIRAL ASSAYS. The anti-HIV-1 activity of the compound A (−) were assessed by employing HIV-1IIIB in a variety of cell types as previously described (Gu et al., 1992, 1994, 1999; Rando et al., 1995; Salomon et al., 1994). Briefly, cells were incubated with virus at a multiplicity of infection (MOI) of 0.005 for T cell assays and an MOI of 0.5 for monocytic cell assays for 3 hrs. Unbound virus was then removed by washing the cells, followed by seeding the cells into a 96-well plate. The infected cells were cultured in the presence of a serial concentrations of the test compound for 5-7 days. The anti-HIV-1 efficacy was determined by testing for HIV-1 RT activity or p24 level in the cell culture supernatants. All assays were performed in duplicate. Zidovudine and/or lamivudine were used as controls in each experiment.\nActivity of the compound A (−) against HIV-1 in various cells. Anti-HIV-1 activity of the compound A (−) were tested in different types of cells, including human peripheral […] cells (PBMCs), T-cell (MT-2 and MT-4) and monocytic cell (U937) lines. The compound A (−) had submicromolar EC50s against HIV-1IIIB in different types of cells tested (Table 2)."}, "105/A (wt)": {"system": "105/A (wt)", "assay": "Drug-resistant clinical isolates in PBMCs (p24)", "type": "cell-based, HIV-1", "conditions": "Human immunodeficiency virus 1, PBMC", "experimental": "as §1\n(§2) Clinical strains were isolated from PBMCs of HIV-1 infected individuals through co-culture with PBMCs from normal dornors. To determine the RT genotype of the HIV-1 clinical isolates, the proviral DNA was extracted from infected CD4^+ T-cells or PBMCs and the complete RT coding regions were amplified by PCR as previously reported (Gu et al 1992). The PCR product was purified and then directly sequenced using primer RTS (5′-CCAAAAGTTAAACAATGGC-3′) which is located at the 5′ portion of the RT coding region (nucleotide 2603-2621 of HXB2-D coordinates). Antiviral activity was evaluated as described in example 10."}, "105/F (zidovudine^R)": {"system": "105/F (zidovudine^R)", "assay": "Drug-resistant clinical isolates in PBMCs (p24)", "type": "cell-based, HIV-1", "conditions": "Human immunodeficiency virus 1, PBMC", "experimental": "as §1, §2"}, "CCR15 (Lamivudine^R)": {"system": "CCR15 (Lamivudine^R)", "assay": "Drug-resistant clinical isolates in PBMCs (p24)", "type": "cell-based, HIV-1", "conditions": "Human immunodeficiency virus 1, PBMC", "experimental": "as §1, §2"}, "CCR18 (Lamivudine^R)": {"system": "CCR18 (Lamivudine^R)", "assay": "Drug-resistant clinical isolates in PBMCs (p24)", "type": "cell-based, HIV-1", "conditions": "Human immunodeficiency virus 1, PBMC", "experimental": "as §1, §2"}, "CCR19 (Lamivudine^R)": {"system": "CCR19 (Lamivudine^R)", "assay": "Drug-resistant clinical isolates in PBMCs (p24)", "type": "cell-based, HIV-1", "conditions": "Human immunodeficiency virus 1, PBMC", "experimental": "as §1, §2"}, "NNRTI^R": {"system": "NNRTI^R", "assay": "Recombinant drug resistant HIV-1 variants (RT activity)", "type": "cell-based", "conditions": "Human immunodeficiency virus 1", "experimental": "as §1\n(§3) Recombinant HIV-1 variants were prepared by introducing the designed mutations into HXB2-D by site-directed mutagenesis as described (Gu et al. 1992, 1994). The virus stocks were prepared by transfecting MT-4 cells with infectious viral DNA constructs. Antiviral activity of the compound A (−) was evaluated as described in example 10."}, "HXB2-D (wt)": {"system": "HXB2-D (wt)", "assay": "Recombinant HIV-1 variants (RT activity)", "type": "cell-based", "conditions": "Human immunodeficiency virus 1, HXB2", "experimental": "as §1, §3"}, "PI^R": {"system": "PI^R", "assay": "Recombinant drug resistant HIV-1 variants (RT activity)", "type": "cell-based", "conditions": "Human immunodeficiency virus 1", "experimental": "as §1, §3"}}, "note": "Where two headings read alike, the source gives them in different places.", "data": [{"smiles": "Nc1nc(NC2CC2)c2ncn([C@H]3C=C[C@@H](CO)C3)c2n1", "note": "[Abacavir, abacavir]", "values": [{"measurement": "EC50", "setting": "HIV-1IIIB; Human immunodeficiency virus 1, MT2, HIV-1IIIB, MT-2 cells, determined by RT activity, read-out: EC50 (μM) ± S.D. in MT-2 cells", "value": 0.1, "unit": "µM"}, {"measurement": "IC50", "setting": "105/A (wt)", "value": "< 30", "unit": "nM"}, {"measurement": "IC50", "setting": "105/F (zidovudine^R)", "value": 70, "unit": "nM"}, {"measurement": "IC50", "setting": "CCR15 (Lamivudine^R)", "value": 220, "unit": "nM"}, {"measurement": "IC50", "setting": "CCR18 (Lamivudine^R)", "value": 1300, "unit": "nM"}, {"measurement": "IC50", "setting": "CCR19 (Lamivudine^R)", "value": 580, "unit": "nM"}]}, {"smiles": "Nc1ncnc2c1ncn2CCOCP(=O)(O)O", "note": "[Adefovir, adefovir]", "values": [{"measurement": "IC50", "setting": "105/A (wt)", "value": 2000, "unit": "nM"}, {"measurement": "IC50", "setting": "105/F (zidovudine^R)", "value": 7000, "unit": "nM"}, {"measurement": "IC50", "setting": "CCR15 (Lamivudine^R)", "value": 800, "unit": "nM"}, {"measurement": "IC50", "setting": "CCR18 (Lamivudine^R)", "value": 2100, "unit": "nM"}, {"measurement": "IC50", "setting": "CCR19 (Lamivudine^R)", "value": 2300, "unit": "nM"}]}, {"smiles": "Cc1cn([C@H]2C=C[C@@H](CO)O2)c(=O)[nH]c1=O", "note": "[Stavudine, stavudine]", "values": [{"measurement": "EC50", "setting": "HIV-1IIIB; Human immunodeficiency virus 1, MT2, read-out: EC50 (μM) ± S.D. in MT-2 cells", "value": "0.38 ± 0.26", "unit": "µM"}, {"measurement": "IC50", "setting": "105/A (wt)", "value": 63, "unit": "nM"}, {"measurement": "IC50", "setting": "105/F (zidovudine^R)", "value": 120, "unit": "nM"}, {"measurement": "IC50", "setting": "CCR15 (Lamivudine^R)", "value": 60, "unit": "nM"}, {"measurement": "IC50", "setting": "CCR18 (Lamivudine^R)", "value": 49, "unit": "nM"}, {"measurement": "IC50", "setting": "CCR19 (Lamivudine^R)", "value": 50, "unit": "nM"}]}, {"smiles": "Cc1ccnc2c1NC(=O)c1cccnc1N2C1CC1", "note": "[nevirapine]", "values": [{"measurement": "EC50", "setting": "NNRTI^R", "value": "> 10", "unit": "µM"}]}, {"smiles": "CC(C)(C)NC(=O)[C@@H]1C[C@@H]2CCCC[C@@H]2CN1C[C@@H](O)[C@H](Cc1ccccc1)NC(=O)[C@H](CC(N)=O)NC(=O)c1ccc2ccccc2n1", "note": "[saquinavir]", "values": [{"measurement": "EC50", "setting": "HXB2-D (wt)", "value": 1.5, "unit": "nM"}, {"measurement": "EC50", "setting": "PI^R", "value": 28, "unit": "nM"}]}]}
